Experimental data reported in article PMC11484942, “Rumicidins are a family of mammalian host-defense peptides plugging the 70S ribosome exit tunnel” (Nature Communications, 2024).

Tested on: E. coli ATCC 25922
Assay: Systemic septicemia infection mouse model
Assay type: in vivo, BALB/c mice
Details: 10 mg/kg IP once (1 h post-infection); n = 5
Protocol: All animal studies were performed at the State Research Center for Applied Microbiology & Biotechnology (SRCAMB) in Obolensk (Russia), approved by the Institutional Bioethics Committee of the SRCAMB (Animal Research Protocol #VP-2022/1) and performed according to the Russian Federal rules and Directive 2010/63/EU of the European Parliament and of the Council. Experiments were performed with female eight- to ten-week-old BALB/c mice (“Andreevka” laboratory animal nursery FMBA, Russia). The animals were housed in groups of 5 in polycarbonate cages, and the following housing conditions were used: 12/12 h dark/light cycle, ambient temperature of 20 ÷ 22 °C, 50% humidity. Food and water were provided ad libitum. In vivo efficacy of rumicidins was tested in the mouse septicemia model induced by E. coli ATCC 25922. Mice were infected with 0.5 mL of bacterial suspension (1 × 10^6 CFU per animal) in saline supplemented with 2.5% mucin (w/v) via intraperitoneal (IP) injection. A total of 4 groups with 5 animals were used. […] The second group received saline (as a vehicle control) and administered IP once (1 h post-infection). Two other groups received rumicidin-1 or rumicidin-3 each administered IP three times (1, 4, and 8 h post-infection) at a dose of 10 mg/kg or of 5 mg/kg, respectively. Survival was monitored for 7 days. After that survived animals were euthanized by CO2 asphyxiation. […]

With `O=C(O)c1cn(C2CC2)c2cc(N3CCNCC3)c(F)cc2c1=O` [Ciprofloxacin] the survival was “survival of all mice”.
